In article PMC10233092, “Selective Janus kinase 1 inhibition resolves inflammation and restores hair growth offering a viable treatment option for alopecia areata” (Skin Health and Disease, 2023):
Where two headings read alike, the source gives them in different places. Blank lines part the entries; values can stand above or below the compound they belong to.

Assays:
[1] = tested on: Human Peripheral Blood Mononuclear Cells (PBMCs); experiment: Cytokine release from anti-CD3-stimulated human PBMCs; format: cell-based; conditions: anti-CD3, 40-48h, 4 healthy donors, linear regression
Experimental: Human Peripheral Blood Mononuclear Cells (PBMCs) were isolated by Sepmate technique (Stemcell Technologies) from heparinized venous blood from healthy volunteers. Primary human CD8^+ T‐cells were further isolated using a CD8^+ T cell Isolation Kit according to protocol (Miltenyi Biotec). Experiments were approved by the local ethical committee in Gothenburg (033‐11).
Soluble anti‐CD28 were added to the CD8^+ cultures to facilitate co‐stimulation. After 40–48 h, supernatants were harvested for mediator analysis and the cells were washed and resuspended in RLT buffer (Qiagen) for RNA isolation.
Analysis of human cytokine panels was carried out using a Luminex assay kit from Merck Millipore (Cat# HCYTMAG‐60K‐PX41) and Mesoscale Discovery (MSD) immunoassay kits (Cat# K211AEB‐2 and K15049D) as recommended in the respective supplier protocols.

[2] = tested on: C3H/HeJ mouse model of AA; experiment: Taqman gene expression in mouse skin; format: in vivo; conditions: Mean±SEM
Experimental: RNA was prepared according to a standard phenol‐chloroform total RNA extraction method where skin samples were homogenized in QIAzol® Lysis Reagent (QIAGEN Sciences, Maryland 20847, USA), added chloroform, vortexed and centrifuged for phase separation. The RNA containing phase was ethanol precipitated and purified on an Applied Biosystems 6100 Nucleic Acid Prep Station. RNA integrity was measured on the Fragment Analyzer platform (AATI, IA, USA) using standard sensitivity RNA analysis kit.
cDNA was synthesized from mouse skin RNA using the High Capacity cDNA Reverse Transcription Kit from Life Technologies. Gene expression was performed on the QuantStudio™ 7 Flex Real‐Time PCR System (Applied Biosystems, Foster City, CA, USA) using custom made TaqMan® Array Micro Fluidic Cards. Results were analyzed with the QuantStudio™ 7 Flex Real‐Time PCR System software. Detailed description in Supplementary materials.
RNA extraction: Frozen 20 mg skin biopsies were transferred to 2 mL eppendorf tubes placed on dry ice, added 5 stainless steel beads of 3 mm ø and 750 μL cold QIAzol® Lysis Reagent (QIAGEN Sciences, Maryland 20847, USA). The samples were mounted on a Mixer Mill Tissue Lyser (Retsch GmbH, Haan, Germany) and homogenized for 2 x 5 minutes at 30 Hz, then centrifuged for 1 minute at 6000g, added 150 μL CHCl3, vigorously shaken for 15 seconds and incubated for 3 minutes. After 15 minutes centrifugation at 6000g the aqueous RNA containing phase was transferred to a 96 deep well plate and mixed with an equal volume of 70 % Ethanol. The RNA-Ethanol precipitate was purified and DNase treated on a 6100 Nucleic Acid Prep Station (Applied Biosystems, Foster City, CA, USA). Total RNA was eluted in 100 μL Elution Buffer (Applied Biosystems, Foster City, CA, USA) and the concentrations were measured on the NanoDrop ND-1000 Spectrophotometer (Thermo Fischer Scientific, Wilmington, DE, USA) at 260 nm.
cDNA synthesis: cDNA synthesis was performed using the High Capacity cDNA Reverse Transcription Kit from Life Technologies (Applied Biosystems, Foster City, CA, USA) according to the manufacturer´s instructions. The cDNA samples were diluted with RNase free water to 100 ng/µL, in a later (experiment) to 200 ng/µL.
The gene expression results are shown as log2 Fold Change. With the calibrator group close to zero, up- or down regulation of the target genes are visualized as positive or negative values, making it easier to assess the size of, in particular, the down regulations.

[3] = tested on: C3H/HeJ mouse model of AA; experiment: Circulating cytokines in mouse plasma, Luminex; format: in vivo; conditions: at 4 weeks
Experimental: A Luminex assay kit from Merck Millipore (Cat# MTH17MAG‐47K) was used and the analysis carried out according to the supplier protocols.

[4] = tested on: C3H/HeJ mouse model of AA; experiment: Cellularity and flow cytometry of spleen and skin draining lymph nodes; format: in vivo; conditions: AA mice
Experimental: Cutaneous lymph nodes and spleens from mice treated either orally or topically (treated and untreated side, respectively) were pooled and minced in DPBS/2% FBS/2 mM EDTA, filtered through […] strainers and spun at 350 g for 5 min. Blood was collected in EDTA‐coated tubes and red blood cells were lysed using BD FACS lysing solution (as was red blood cells from spleen single cell suspensions). Cell differential were obtained from haematology analyzer Sysmex XE‐2100 (Sysmex Corporation, Japan). Equal cell numbers for each sample were incubated with anti‐mouse CD16/CD32 block to prevent unspecific binding and then stained for 30 min at 4°C with the following anti‐mouse antibodies (all from BD); FITC CD3e (145‐2C11), APC‐Cy7 TCRβ (H‐57‐597), BV510 or BV786 CD8α (53‐6.7), BV711 NKG2D (Cx5), BUV395 CD4 (GK1.5), BV711 or BV605 CD44 (IM7), BUV395 CD45 (30‐F11), PerCP‐Cy5.5 CD19 (1D3) and PE‐Cy7 CD62L (MEL‐14). […] The cells were analyzed on a BD LSRII flow cytometer and analysis was performed with FlowJo (Tree Star) software.

[5] = C3H/HeJ, mouse, in vivo
[6] = Local JAK1i group, Mean±95% CI, n=6
[7] = Systemic JAK1i group, Mean±95% CI, n=6

SMILES: Cc1cnc(Nc2cccnc2F)nc1-c1c[nH]c2c(NC(=O)[C@@H](C)N3CCN(C)CC3)cccc12 [Cmpd A]
release of TNFα, IL-1RA, IP-10, IL-17 and MIP-1β from PBMC compared with Ruxo and Tofa [1]: significantly differently released
CD8a expression in skin, fold change (log2) from AA ([2]; 8w off Tx): -0.32 ± 0.45 (0.97, n=6) log2 fold change
CXCL9 expression in skin, fold change (log2) from AA ([2]; 8w off Tx): -0.33 ± 0.73 (0.96, n=6) log2 fold change
CXCL10 expression in skin, fold change (log2) from AA ([2]; 8w off Tx): -0.32 ± 0.61 (0.97, n=6) log2 fold change
CXCL11 expression in skin, fold change (log2) from AA ([2]; 8w off Tx): 0.43 ± 0.73 (0.93, n=6) log2 fold change
GZMB expression in skin, fold change (log2) from AA ([2]; 8w off Tx): -0.81 ± 0.73 (0.099, n=3) log2 fold change
ICOS expression in skin, fold change (log2) from AA ([2]; 8w off Tx): -0.05 ± 0.09 (0.34, n=2) log2 fold change
Krt32 expression in skin, fold change (log2) from AA ([2]; 8w off Tx): -1.44 ± 0.98 (0.062, n=6) log2 fold change
MX1 expression in skin, fold change (log2) from AA ([2]; 8w off Tx): -0.37 ± 0.41 (0.67, n=6) log2 fold change
STAT1 expression in skin, fold change (log2) from AA ([2]; 8w off Tx): -0.30 ± 0.28 (0.67, n=6) log2 fold change
CD8a expression in skin, fold change (log2) from AA ([2]; Systemic JAKi (oral, 4 weeks)): -2.56 ± 0.24 (<0.001, n=6) log2 fold change
CXCL9 expression in skin, fold change (log2) from AA ([2]; Systemic JAKi (oral, 4 weeks)): -3.83 ± 0.47 (<0.001, n=6) log2 fold change
CXCL10 expression in skin, fold change (log2) from AA ([2]; Systemic JAKi (oral, 4 weeks)): -3.28 ± 0.42 (<0.001, n=5) log2 fold change
CXCL11 expression in skin, fold change (log2) from AA ([2]; Systemic JAKi (oral, 4 weeks)): -4.32 ± 0.36 (<0.001, n=5) log2 fold change
ICOS expression in skin, fold change (log2) from AA ([2]; Systemic JAKi (oral, 4 weeks)): -1.05 ± 0.12 (0.0083, n=4) log2 fold change
Krt32 expression in skin, fold change (log2) from AA ([2]; Systemic JAKi (oral, 4 weeks)): -3.16 ± 0.13 (<0.001, n=6) log2 fold change
MX1 expression in skin, fold change (log2) from AA ([2]; Systemic JAKi (oral, 4 weeks)): -3.71 ± 0.21 (<0.001, n=6) log2 fold change
STAT1 expression in skin, fold change (log2) from AA ([2]; Systemic JAKi (oral, 4 weeks)): -2.29 ± 0.25 (<0.001, n=6) log2 fold change

SMILES: Cc1cnc(Nc2cc(N3C[C@@H]4C[C@H]3CN4C)cnc2F)nc1N[C@H](C)[C@H](C)CO [Cmpd B, (2S,3R)-3-{[2-({2-fluoro-5-[(1S,4S)-5-methyl-2,5-diazabicyclo[2.2.1]heptan-2-yl]pyridin-3-yl}amino)-5-methylpyrimidin-4-yl]amino}-2-methylbutan-1-ol]
CD8a expression in skin, fold change (log2) from AA ([2]; Local JAK1i (treated side)): 1.06 ± 0.63 (0.245, n=6) log2 fold change
CXCL9 expression in skin, fold change (log2) from AA ([2]; Local JAK1i (treated side)): 0.60 ± 0.50 (0.69, n=6) log2 fold change
CXCL10 expression in skin, fold change (log2) from AA ([2]; Local JAK1i (treated side)): 0.23 ± 0.49 (0.99, n=6) log2 fold change
CXCL11 expression in skin, fold change (log2) from AA ([2]; Local JAK1i (treated side)): 0.06 ± 0.63 (0.99, n=6) log2 fold change
GZMB expression in skin, fold change (log2) from AA ([2]; Local JAK1i (treated side)): 0.93 ± 0.35 (0.45, n=5) log2 fold change
ICOS expression in skin, fold change (log2) from AA ([2]; Local JAK1i (treated side)): 1.33 ± 0.18 (<0.001, n=4) log2 fold change
Krt32 expression in skin, fold change (log2) from AA ([2]; Local JAK1i (treated side)): -0.81 ± 0.70 (0.49, n=6) log2 fold change
MX1 expression in skin, fold change (log2) from AA ([2]; Local JAK1i (treated side)): 0.03 ± 0.38 (0.99, n=6) log2 fold change
STAT1 expression in skin, fold change (log2) from AA ([2]; Local JAK1i (treated side)): 1.09 ± 0.29 (<0.001, n=6) log2 fold change
CD8a expression in skin, fold change (log2) from AA ([2]; Local JAK1i (untreated side)): 1.02 ± 0.71 (0.80, n=6) log2 fold change
CXCL9 expression in skin, fold change (log2) from AA ([2]; Local JAK1i (untreated side)): 0.82 ± 0.65 (0.41, n=6) log2 fold change
CXCL10 expression in skin, fold change (log2) from AA ([2]; Local JAK1i (untreated side)): -0.03 ± 0.74 (0.99, n=6) log2 fold change
CXCL11 expression in skin, fold change (log2) from AA ([2]; Local JAK1i (untreated side)): 0.08 ± 0.76 (0.99, n=6) log2 fold change
GZMB expression in skin, fold change (log2) from AA ([2]; Local JAK1i (untreated side)): 0.77 ± 0.37 (0.64, n=5) log2 fold change
ICOS expression in skin, fold change (log2) from AA ([2]; Local JAK1i (untreated side)): 1.06 ± 0.29 (0.0018, n=5) log2 fold change
Krt32 expression in skin, fold change (log2) from AA ([2]; Local JAK1i (untreated side)): -0.64 ± 0.71 (0.70, n=6) log2 fold change
MX1 expression in skin, fold change (log2) from AA ([2]; Local JAK1i (untreated side)): 0.02 ± 0.41 (0.99, n=6) log2 fold change
STAT1 expression in skin, fold change (log2) from AA ([2]; Local JAK1i (untreated side)): 1.07 ± 0.29 (<0.001, n=6) log2 fold change

estimated average free exposure in plasma over IC50 [5]: 0.02 fold IC50
estimated average free exposure in skin over IC50 [5]: 0.43 fold IC50
estimated average free exposure in plasma over IC50 ([5]; po, 2 weeks): 1.4 fold IC50
estimated average free exposure in skin over IC50 ([5]; po, 2 weeks): 0.5 fold IC50
SMILES: COCC(C(=O)Nc1cccc2c(-c3nc(Nc4cccc(S(C)(=O)=O)c4F)ncc3F)c[nH]c12)N1CCN(C)CC1 (stereo not shown) [Cmpd C]
IFN-γ in mouse plasma [3, 6]: 42 (±14) pg/mL
IL-1β in mouse plasma [3, 6]: 2.4 (±0.5) pg/mL
IL-2 in mouse plasma [3, 6]: 6.2 (±1.6) pg/mL
IL-10 in mouse plasma [3, 6]: 2.9 (±1.4) pg/mL
IL-13 in mouse plasma [3, 6]: 37 (±2.9) pg/mL
IL-17A in mouse plasma [3, 6]: 15 (±2.4) pg/mL
IL-22 in mouse plasma [3, 6]: 35 (±25) pg/mL
IL-23 in mouse plasma [3, 6]: 148 (±95) pg/mL
IL-33 in mouse plasma [3, 6]: 76 (±58) pg/mL
TNFα in mouse plasma [3, 6]: 7.3 (±0.8) pg/mL
IL-6 in mouse plasma ([3]; Local JAK1i group, only one value within detection range): 2.8 (±NA) pg/mL
IFN-γ in mouse plasma [3, 7]: 49 (±21) pg/mL
IL-2 in mouse plasma [3, 7]: 4.5 (±1.5) pg/mL
IL-6 in mouse plasma [3, 7]: 2.9 (±2.3) pg/mL
IL-10 in mouse plasma [3, 7]: 2.4 (±0.7) pg/mL
IL-13 in mouse plasma [3, 7]: 33 (±13) pg/mL
IL-17A in mouse plasma [3, 7]: 15 (±4.2) pg/mL
IL-22 in mouse plasma [3, 7]: 42 (±31) pg/mL
IL-23 in mouse plasma [3, 7]: 206 (±333) pg/mL
IL-33 in mouse plasma [3, 7]: 32 (±17) pg/mL
TNFα in mouse plasma [3, 7]: 6.3 (±2.0) pg/mL
IL-1β in mouse plasma ([3]; Systemic JAK1i group, only one value within detection range): 2.0 (±NA) pg/mL
hypercellularity of skin draining LNs and spleen ([4]; systemic (oral 12.5 mg/kg/day, 2 weeks)): drastically reduced
hypercellularity of skin draining LNs and spleen ([4]; topical treatment (0.01% cream, 2 weeks)): only marginally affected
